Reference: patent US12258370B2, “Betulastatin compounds” (Arizona Board of Regents on behalf of Arizona State …, priority 2017, dated 2025)
Converted amounts (≈) assume the structure as drawn.

Key:
Assay type in all cases: cell-based
NCI-H460 (lung) = assay: Sulforhodamine B human cancer cell growth inhibition, NCI-H460; details: NCI-H460 lung cell line, compounds in DMSO, 48 h; for IC50: Homo sapiens, read-out: Gl50 Growth Inhibition, NCI-H460
Protocol: (§1) Cancer Cell Line Procedures. Inhibition of human cancer cell growth was assessed using the standard sulforhodamine B assay of the U.S. National Cancer Institute, as previously described.^15 To begin, cells in a 5% fetal bovine serum/RPMI1640 medium were inoculated in 96-well plates and incubated for 24 h. Next, serial dilutions of the compounds were added. After 48 h, the plates were fixed with trichloroacetic acid, stained with sulforhodamine B, and read with an automated microplate reader.

BXPC-3 (pancreas) = assay: Sulforhodamine B human cancer cell growth inhibition, BXPC-3; details: BXPC-3 pancreas cell line, compounds in DMSO, 48 h; for IC50: Homo sapiens, read-out: Gl50 Growth Inhibition, XPC-3
Protocol: as §1

DU-145 (prostate) = assay: Sulforhodamine B human cancer cell growth inhibition, DU-145; details: DU-145 prostate cell line, compounds in DMSO, 48 h; for IC50: Homo sapiens, read-out: Gl50 Growth Inhibition, DU-145
Protocol: as §1

KM20L2 (colon) = assay: Sulforhodamine B human cancer cell growth inhibition, KM20L2; details: compounds in DMSO, 48 h; for Gl50 Growth Inhibition, KM20L2: KM20L2 colon cell line; for IC50: Homo sapiens, KM-20L2, KM20L2 colon cell line, read-out: Gl50 Growth Inhibition, KM20L2
Protocol: as §1

SF-268 (CNS) = assay: Sulforhodamine B human cancer cell growth inhibition, SF-268; details: SF-268 CNS cell line, compounds in DMSO, 48 h; for IC50: Homo sapiens, read-out: Gl50 Growth Inhibition, SF-268
Protocol: as §1

MCF-7 (breast) = assay: Sulforhodamine B human cancer cell growth inhibition, MCF-7; details: compounds in DMSO, 48 h; for Gl50 Growth Inhibition, MCF-7: MCF-7 breast cell line; for IC50: Homo sapiens, MCF7, MCF-7 breast cell line, read-out: Gl50 Growth Inhibition, MCF-7
Protocol: as §1

Compound	Gl50 Growth Inhibition, NCI-H460 (NCI-H460 (lung)) [µg/mL]	Gl50 Growth Inhibition, XPC-3 (BXPC-3 (pancreas)) [µg/mL]	Gl50 Growth Inhibition, DU-145 (DU-145 (prostate)) [µg/mL]	Gl50 Growth Inhibition, KM20L2 (KM20L2 (colon)) [µg/mL]	Gl50 Growth Inhibition, SF-268 (SF-268 (CNS)) [µg/mL]	Gl50 Growth Inhibition, MCF-7 (MCF-7 (breast)) [µg/mL]	IC50 (NCI-H460 (lung)) [µg/mL]	IC50 (BXPC-3 (pancreas)) [µg/mL]	IC50 (DU-145 (prostate)) [µg/mL]	IC50 (KM20L2 (colon)) [µg/mL]	IC50 (SF-268 (CNS)) [µg/mL]	IC50 (MCF-7 (breast)) [µg/mL]
3-O-Acetyl-28-amido-allobetulin-28-N-1′-ethyldiamine-N-2′-Dap-Dil-Val-Dov [Compound 18a]	5.1	3.8	0.39	3.1	1.3	3.6	–	–	–	–	–	–
C=C(C)[C@@H]1CC[C@]2(COC(C)=O)CC[C@]3(C)[C@H](CC[C@@H]4[C@@]5(C)CCC(N)C(C)(C)[C@@H]5CC[C@]43C)[C@@H]12 (single isomer, unassigned) [Compound 9a, 3-α/β-Amino-28-O-acetyl-betulin]	6.0	>10	1.3	3.0	1.2	2.1	–	–	–	–	–	–
C=C(C)[C@@H]1CC[C@]2(CO)CC[C@]3(C)[C@H](CC[C@@H]4[C@@]5(C)CC[C@H](O)C(C)(C)[C@@H]5CC[C@]43C)[C@@H]12 [Betulin, betulin, reference compound]	–	–	–	–	–	–	7.4 (≈ 16.7 µM)	9.3 (≈ 21 µM)	> 10	> 10	> 10	> 10
C=C(C)[C@@H]1CC[C@]2(C=O)CC[C@]3(C)[C@H](CC[C@@H]4[C@@]5(C)CC[C@H](OC(C)=O)C(C)(C)[C@@H]5CC[C@]43C)[C@@H]12 [Compound 1, 3-O-Acetyl-28-betulinal]	>10	>10	>10	>10	>10	>10	–	–	–	–	–	–
C=C(C)[C@@H]1CC[C@]2(/C=N/O)CC[C@]3(C)[C@H](CC[C@@H]4[C@@]5(C)CC[C@H](OC(C)=O)C(C)(C)[C@@H]5CC[C@]43C)[C@@H]12 [Compound 2, 3-O-Acetyl-28-oxime-betulin]	4.1	15.5	>10	5.1	13.2	4.5	–	–	–	–	–	–
C=C(C)[C@@H]1CC[C@]2(CN)CC[C@]3(C)C(CCC4[C@@]5(C)CC[C@H](OC(C)=O)C(C)(C)C5CC[C@]43C)C12 (stereo partly drawn) [Compound 3, 3-O-Acetyl-28-aminobetulin]	–	–	–	–	–	–	1.9 (≈ 3.93 µM)	1.9 (≈ 3.93 µM)	1.8 (≈ 3.72 µM)	1.9 (≈ 3.93 µM)	1.8 (≈ 3.72 µM)	1.8 (≈ 3.72 µM)
C=C(C)[C@@H]1CC[C@]2(CNC(=O)[C@H](C)[C@@H](OC)C3CCCN3C(=O)OC(C)(C)C)CC[C@]3(C)C(CCC4[C@@]5(C)CC[C@H](OC(C)=O)C(C)(C)C5CC[C@]43C)C12 (stereo partly drawn) [Compound 5, 3-O-Acetyl-28-amino-N-(Boc-dap)-betulin]	–	–	–	–	–	–	> 10	> 10	> 10	> 10	> 10	> 10
C=C(C)[C@@H]1CC[C@]2(CNC(=O)[C@H](C)[C@@H](OC)[C@@H]3CCCN3C(=O)C[C@@H](OC)[C@H]([C@@H](C)CC)N(C)C(=O)[C@@H](NC(=O)[C@H](C(C)C)N(C)C)C(C)C)CC[C@]3(C)[C@H](CC[C@@H]4[C@@]5(C)CC[C@H](OC(C)=O)C(C)(C)[C@@H]5CC[C@]43C)[C@@H]12 [Compound 7a, 3-O-Acetyl-28-amino-N-(Dap-Dil-Val-Dov)-betulin]	4.2	4.1	3.7	2.4	2.6	3.6	–	–	–	–	–	–
C=C(C)[C@@H]1CC[C@]2(COC(C)=O)CC[C@]3(C)C(CCC4[C@@]5(C)CC/C(=N/O)C(C)(C)[C@@H]5CC[C@]43C)[C@@H]12 (stereo partly drawn) [Compound 8, 3-Oxime-28-O-acetyl-betulin]	–	–	–	–	–	–	> 10	10.4 (≈ 20.9 µM)	> 10	14.1 (≈ 28.3 µM)	> 10	5.9 (≈ 11.9 µM)
C=C(C)[C@@H]1CC[C@]2(COC(C)=O)CC[C@]3(C)C(CCC4[C@@]5(C)CC[C@H](NC(=O)[C@H](C)[C@@H](OC)C6CCCN6C(=O)OC(C)(C)C)C(C)(C)[C@@H]5CC[C@]43C)[C@@H]12 (stereo partly drawn) [Compound 10, 3-β-Amino-N-(Boc-Dap)-28-O-acetyl-betulin]	–	–	–	–	–	–	> 10	> 10	> 10	> 10	> 10	> 10
C=C(C)[C@@H]1CC[C@]2(COC(C)=O)CC[C@]3(C)[C@H](CC[C@@H]4[C@@]5(C)CC[C@H](NC(=O)[C@H](C)[C@@H](OC)[C@@H]6CCCN6C(=O)C[C@@H](OC)[C@H]([C@@H](C)CC)N(C)C(=O)[C@@H](NC(=O)[C@H](C(C)C)N(C)C)C(C)C)C(C)(C)[C@@H]5CC[C@]43C)[C@@H]12 [Compound 11a, 3β-Amino-N-(Dap-Dil-Val-Dov)-28-O-acetyl-betulin]	>10	10.0	2.5	7.0	3.8	4.1	–	–	–	–	–	–
C=C(CBr)[C@@H]1CC[C@]2(COC(C)=O)CC[C@]3(C)[C@H](CC[C@@H]4[C@@]5(C)CC[C@H](OC(C)=O)C(C)(C)[C@@H]5CC[C@]43C)[C@@H]12 [Compound 12, 3,28-Di-O-acetyl-30-bromo-betulin]	>10	>10	>10	>10	>10	>10	–	–	–	–	–	–
C=C(CN=[N+]=[N-])[C@@H]1CC[C@]2(COC(C)=O)CC[C@]3(C)C(CCC4[C@@]5(C)CC[C@H](OC(C)=O)C(C)(C)[C@@H]5CC[C@]43C)[C@@H]12 (stereo partly drawn) [Compound 13, 3,28-Di-O-acetyl-30-azido-betulin]	–	–	–	–	–	–	> 10	> 10	> 10	> 10	> 10	> 10
C=C(CN)[C@@H]1CC[C@]2(CO)CC[C@]3(C)[C@H](CC[C@@H]4[C@@]5(C)CC[C@H](O)C(C)(C)[C@@H]5CC[C@]43C)[C@@H]12 [Compound 14, 30-Amino-betulin]	4.0	3.0	2.1	2.9	4.2	3.1	–	–	–	–	–	–
C=C(CNC(=O)[C@H](C)[C@@H](OC)[C@@H]1CCCN1C(=O)OC(C)(C)C)[C@@H]1CC[C@]2(CO)CC[C@]3(C)[C@H](CC[C@@H]4[C@@]5(C)CC[C@H](O)C(C)(C)[C@@H]5CC[C@]43C)[C@@H]12 [Compound 15a, 30-N-(Boc-dap)-betulin]	>10	>10	>10	>10	>10	9.0	–	–	–	–	–	–
C=C(CNC(=O)[C@H](C)[C@@H](OC)[C@@H]1CCCN1C(=O)OC(C)(C)C)[C@@H]1CC[C@]2(COC(C)=O)CC[C@]3(C)[C@H](CC[C@@H]4[C@@]5(C)CC[C@H](OC(C)=O)C(C)(C)[C@@H]5CC[C@]43C)[C@@H]12 [Compound 15b, 30-N-(Boc-dap)-3, 28-di-O-acetoxy-betulin]	>10	>10	>10	7.0	5.9	>10	–	–	–	–	–	–
C=C(CNC(=O)[C@H](C)[C@@H](OC)[C@@H]1CCCN1C(=O)C[C@@H](OC)[C@H]([C@@H](C)CC)N(C)C(=O)[C@@H](NC(=O)[C@H](C(C)C)N(C)C)C(C)C)[C@@H]1CC[C@]2(COC(C)=O)CC[C@]3(C)[C@H](CC[C@@H]4[C@@]5(C)CC[C@H](OC(C)=O)C(C)(C)[C@@H]5CC[C@]43C)[C@@H]12 [Compound 16a, 30-N-(Dap-Dil-Val-Dov)-3,28-di-O-acetoxy-betulin]	>10	8.0	3.0	4.0	4.0	6.3	–	–	–	–	–	–
